Experimental data as given in ChEMBL document CHEMBL5724914, “Linking interpersonal differences in gut microbiota composition and drug biotransformation activity” (2024).

Key:
[1] = human gut metagenome, 24 h, 2 µM
[2] = human gut metagenome, 24 h, 2 µM; remark: listed apart in the source
[3] = human gut metagenome, 24 h, 2 µM; remark: listed apart in the source
[4] = human gut metagenome, 24 h, 2 µM; remark: listed apart in the source
[5] = (§1) The drug is tested on Z-024 corresponding to pig gut metagenome with ENA study accession number: PRJEB37062 and ENA sample accession number: ERS12561823 for biotransformation under anaerobic condition. The drug concentrations were measured over 9 timepoints collected between 0 and 24 hours of incubation by liquid-chromatography-coupled mass spectrometry (LC–MS); settings: 2 µM
[6] = human gut metagenome, 24 h, 2 µM; remark: listed apart in the source
[7] = as §1, with “WLS-073” for “Z-024”, “human” for “pig”, “ERS12561749” for “ERS12561823”; settings: 2 µM
[8] = as §1, with “Z-027” for “Z-024”, “to” for “to pig gut”, “ERS12561826” for “ERS12561823”; settings: 2 µM
[9] = as §1, with “WLS-006” for “Z-024”, “human” for “pig”, “ERS12561741” for “ERS12561823”; settings: 2 µM
Note: call rule not given here.

| SMILES | Bacterial Biotransformation [1] | Bacterial Biotransformation [2] | Bacterial Biotransformation [3] | Bacterial Biotransformation [4] | Bacterial Biotransformation [5] | Bacterial Biotransformation [6] | Bacterial Biotransformation [7] | Bacterial Biotransformation [8] | Bacterial Biotransformation [9] |
| --- | --- | --- | --- | --- | --- | --- | --- | --- | --- |
| Nc1ccc(/N=N/c2ccccc2)c(N)n1 [PHENAZOPYRIDINE] | Compound metabolized | Compound metabolized | Compound metabolized | Compound metabolized | Compound metabolized | Compound metabolized | Compound metabolized | Compound metabolized | Compound metabolized |
| CC(C(=O)O)c1ccc2c(c1)Cc1cccnc1O2 (configuration not stated) [PRANOPROFEN] | Compound metabolized | Compound metabolized | Compound metabolized | Compound metabolized | Compound NOT metabolized | Compound metabolized | Compound metabolized | Compound metabolized | Compound metabolized |
| CCc1nc(N)nc(N)c1-c1ccc(Cl)cc1 [PYRIMETHAMINE] | Compound metabolized | Compound metabolized | Compound NOT metabolized | Compound NOT metabolized | Compound metabolized | Compound metabolized | Compound NOT metabolized | Compound NOT metabolized | Compound NOT metabolized |
| COc1ccccc1OCC(O)CN1CCN(CC(=O)Nc2c(C)cccc2C)CC1 (configuration not stated) [RANOLAZINE] | Compound NOT metabolized | Compound NOT metabolized | Compound NOT metabolized | Compound NOT metabolized | Compound NOT metabolized | Compound NOT metabolized | Compound NOT metabolized | Compound NOT metabolized | Compound NOT metabolized |
| CCCc1nn(C)c2c(=O)[nH]c(-c3cc(S(=O)(=O)N4CCN(C)CC4)ccc3OCC)nc12.O=C(O)CC(O)(CC(=O)O)C(=O)O [SILDENAFIL CITRATE] | Compound NOT metabolized | Compound metabolized | Compound NOT metabolized | Compound metabolized | Compound metabolized | Compound metabolized | Compound NOT metabolized | Compound NOT metabolized | Compound metabolized |
| COc1ccc2[nH]c([S+]([O-])Cc3ncc(C)c(OC)c3C)nc2n1 (configuration not stated) [TENATOPRAZOLE] | Compound NOT metabolized | Compound NOT metabolized | Compound metabolized | Compound metabolized | Compound NOT metabolized | Compound NOT metabolized | Compound metabolized | Compound metabolized | Compound metabolized |
| CN1C(C(=O)Nc2ccccn2)=C(O)c2sccc2S1(=O)=O [TENOXICAM] | Compound NOT metabolized | Compound NOT metabolized | Compound NOT metabolized | Compound NOT metabolized | Compound metabolized | Compound NOT metabolized | Compound NOT metabolized | Compound NOT metabolized | Compound NOT metabolized |
| O=c1n(CCCN2CCN(c3cccc(Cl)c3)CC2)nc2ccccn12 [TRAZODONE] | Compound metabolized | Compound metabolized | Compound metabolized | Compound NOT metabolized | Compound metabolized | Compound metabolized | Compound metabolized | Compound NOT metabolized | Compound metabolized |
